From patent US20200315176A1, “FUNGICIDAL COMPOSITIONS” (SYNGENTA PARTICIPATIONS AG, priority 2017, published 2020)
Each block holds one compound with its values, some of them ahead of it.

Experiments:
[1] = tested on: Glomerella lagenarium (Colletotrichum lagenarium); assay: Example A4: fungicidal activity against Glomerella lagenarium (Colletotrichum lagenarium) liquid culture / cucumber / preventative (anthracnose); assay type: cell-based; details: Colletotrichum orbiculare, 20 ppm in the applied formulation, growth measured photometrically 3 to 4 days after application, read-out: disease control
Procedure: Mycelia fragments or conidia suspensions of a fungus prepared either freshly from liquid cultures of the fungus or from cryogenic storage, are directly mixed into nutrient broth. DMSO solutions of the test compound (max. 10 mg/mL) are diluted with 0.025% Tween20 by a factor of 50 and 10 μL of this solution is pipetted into a microtiter plate (96-well format). The nutrient broth containing the fungal spores/mycelia fragments is then added to give an end concentration of the tested compound. The test plates are incubated in the dark at 24° C. and 96% relative humidity. The inhibition of fungal growth is determined photometrically after 2 to 7 days, depending on the pathosystem, and percent antifungal activity relative to the untreated check is calculated. Conidia of the fungus from cryogenic storage are directly mixed into nutrient broth (PDB—potato dextrose broth). After placing a (DMSO) solution of test compound into a microtiter plate (96-well format), the nutrient broth containing the fungal spores is added.

[2] = tested on: Puccinia recondita f. sp. tritici; assay: Example A1: fungicidal activity against Puccinia recondita f. sp. tritici / wheat / leaf disc preventative (brown rust); assay type: in vivo; details: foliar, 200 ppm in the applied formulation, wheat leaf segments, compared to untreated, read-out: disease control
Procedure: (§1) Leaf disks or leaf segments of various plant species are cut from plants grown in a greenhouse. The cut leaf disks or segments are placed in multiwell plates (24-well format) onto water agar. The leaf disks are sprayed with a test solution before (preventative) or after (curative) inoculation. Compounds to be tested are prepared as DMSO solutions (max. 10 mg/mL) which are diluted to the appropriate concentration with 0.025% Tween20 just before spraying. The inoculated leaf disks or segments are incubated under defined conditions (temperature, relative humidity, light, etc.) according to the respective test system. A single evaluation of disease level is carried out 3 to 14 days after inoculation, depending on the pathosystem. Percent disease control relative to the untreated check leaf disks or segments is then calculated.
Wheat leaf segments cv. Kanzler were placed on agar in multiwell plates (24-well format) and sprayed with the formulated test compound diluted in water. The leaf disks were inoculated with a spore suspension of the fungus 1 day after application. The inoculated leaf segments were incubated at 19° C. and 75% relative humidity (rh) under a light regime of 12 hours light/12 hours darkness in a climate cabinet and the activity of a compound was assessed as percent disease control compared to untreated when an appropriate level of disease damage appears in untreated check leaf segments (7 to 9 days after application).

[3] = tested on: Puccinia recondita f. sp. tritici; assay: Example A2: fungicidal activity against Puccinia recondita f. sp. tritici / wheat / leaf disc curative (brown rust); assay type: in vivo; details: foliar, 24 h, 200 ppm in the applied formulation, curative (applied 1 day after inoculation), wheat leaf segments, read-out: disease control
Procedure: as §1
Wheat leaf segments cv. Kanzler are placed on agar in multiwell plates (24-well format). The leaf segments are then inoculated with a spore suspension of the fungus. Plates were stored in darkness at 19° C. and 75% relative humidity. The formulated test compound diluted in water was applied 1 day after inoculation. The leaf segments were incubated at 19° C. and 75% relative humidity under a light regime of 12 hours light/12 hours darkness in a climate cabinet and the activity of a compound was assessed as percent disease control compared to untreated when an appropriate level of disease damage appears in untreated check leaf segments (6 to 8 days after application).

Phakopsora pachrhizi = assay: Example A3: fungicidal activity against Phakopsora pachrhizi / soybean / leaf disc preventative (Asian soybean rust); assay type: in vivo; details: Phakopsora pachyrhizi, foliar, 200 ppm in the applied formulation, soybean leaf disks, read-out: disease control
Procedure: as §1
Soybean leaf disks are placed on water agar in multiwell plates (24-well format) and sprayed with the formulated test compound diluted in water. One day after application leaf discs are inoculated by spraying a spore suspension on the lower leaf surface. After an incubation period in a climate cabinet of 24-36 hours in darkness at 20° C. and 75% rh leaf disc are kept at 20° C. with 12 h light/day and 75% rh. The activity of a compound is assessed as percent disease control compared to untreated when an appropriate level of disease damage appears in untreated check leaf disks (12 to 14 days after application).

SMILES: FC(F)(F)c1nc(-c2ccc(Cn3nc4cccnc4n3)cc2)no1 [X.10, 3-[4-(triazolo[4,5-b]pyridin-2-ylmethyl)phenyl]-5-(trifluoromethyl)-1,2,4-oxadiazole]
inhibition of growth at 20 ppm [1]: ≥ 80% | pest or weed control at 200 ppm [2]: ≥ 80% | pest or weed control at 200 ppm [3]: ≥ 80% | melting point: 121 to 122 °C | pest or weed control at 200 ppm (Phakopsora pachrhizi): ≥ 80%

SMILES: CON=Cc1cnn(Cc2ccc(-c3noc(C(F)(F)F)n3)cc2)c1 [X.20, N-methoxy-1-[1-[[4-[5-(trifluoromethyl)-1,2,4-oxadiazol-3-yl]phenyl]methyl]pyrazol-4-yl]methanimine]
inhibition of growth at 20 ppm [1]: ≥ 80% | pest or weed control at 200 ppm [2]: ≥ 80% | pest or weed control at 200 ppm [3]: ≥ 80% | pest or weed control at 200 ppm (Phakopsora pachrhizi): ≥ 80%

SMILES: CCOC(=O)c1cnn(Cc2ccc(-c3noc(C(F)(F)F)n3)cc2)c1 [X.03, ethyl 1-[[4-[5-(trifluoromethyl)-1,2,4-oxadiazol-3-yl]phenyl]methyl]pyrazole-4-carboxylate]
inhibition of growth at 20 ppm [1]: ≥ 80% | pest or weed control at 200 ppm [2]: ≥ 80% | pest or weed control at 200 ppm [3]: ≥ 80% | pest or weed control at 200 ppm (Phakopsora pachrhizi): ≥ 80%

SMILES: N#Cc1ncnn1Cc1ccc(-c2noc(C(F)(F)F)n2)cc1 [X.02, 2-[[4-[5-(trifluoromethyl)-1,2,4-oxadiazol-3-yl]phenyl]methyl]-1,2,4-triazole-3-carbonitrile]
inhibition of growth at 20 ppm [1]: ≥ 80% | pest or weed control at 200 ppm [2]: ≥ 80% | pest or weed control at 200 ppm [3]: ≥ 80% | pest or weed control at 200 ppm (Phakopsora pachrhizi): ≥ 80%

SMILES: FC(F)(F)c1nc(-c2ccc(Cn3nnc4cccnc43)cc2)no1 [X.11, 3-[4-(triazolo[4,5-b]pyridin-3-ylmethyl)phenyl]-5-(trifluoromethyl)-1,2,4-oxadiazole]
inhibition of growth at 20 ppm [1]: ≥ 80% | pest or weed control at 200 ppm [2]: ≥ 80% | pest or weed control at 200 ppm [3]: ≥ 80% | melting point: 143 to 144 °C | pest or weed control at 200 ppm (Phakopsora pachrhizi): ≥ 80%

SMILES: CCSc1ncnn1Cc1ccc(-c2noc(C(F)(F)F)n2)cc1 [X.08, 3-[4-[(5-ethylsulfanyl-1,2,4-triazol-1-yl)methyl]phenyl]-5-(trifluoromethyl)-1,2,4-oxadiazole]
inhibition of growth at 20 ppm [1]: ≥ 80% | pest or weed control at 200 ppm [2]: ≥ 80% | pest or weed control at 200 ppm [3]: ≥ 80% | pest or weed control at 200 ppm (Phakopsora pachrhizi): ≥ 80%

SMILES: CN(C)c1ncn(Cc2ccc(-c3noc(C(F)(F)F)n3)cc2)n1 [X.07, N,N-dimethyl-1-[[4-[5-(trifluoromethyl)-1,2,4-oxadiazol-3-yl]phenyl]methyl]-1,2,4-triazol-3-amine]
inhibition of growth at 20 ppm [1]: ≥ 80% | pest or weed control at 200 ppm [2]: ≥ 80% | pest or weed control at 200 ppm [3]: ≥ 80% | pest or weed control at 200 ppm (Phakopsora pachrhizi): ≥ 80%

SMILES: FC(F)(F)c1nc(-c2ccc(Cn3nnc4ncccc43)cc2)no1 [X.09, 3-[4-(triazolo[4,5-b]pyridin-1-ylmethyl)phenyl]-5-(trifluoromethyl)-1,2,4-oxadiazole]
inhibition of growth at 20 ppm [1]: ≥ 80% | pest or weed control at 200 ppm [2]: ≥ 80% | pest or weed control at 200 ppm [3]: ≥ 80% | pest or weed control at 200 ppm (Phakopsora pachrhizi): ≥ 80%

SMILES: CCOC(=O)c1cnn(C(C)c2ccc(-c3noc(C(F)(F)F)n3)cc2)c1 (centres unmarked) [X.21, ethyl 1-[1-[4-[5-(trifluoromethyl)-1,2,4-oxadiazol-3-yl]phenyl]ethyl]pyrazole-4-carboxylate]
inhibition of growth at 20 ppm [1]: ≥ 80% | pest or weed control at 200 ppm [2]: ≥ 80% | pest or weed control at 200 ppm [3]: ≥ 80% | pest or weed control at 200 ppm (Phakopsora pachrhizi): ≥ 80%

SMILES: NC(=O)c1cnn(Cc2ccc(-c3noc(C(F)(F)F)n3)cc2)c1 [X.19, 1-[[4-[5-(trifluoromethyl)-1,2,4-oxadiazol-3-yl]phenyl]methyl]pyrazole-4-carboxamide]
inhibition of growth at 20 ppm [1]: ≥ 80% | pest or weed control at 200 ppm [2]: ≥ 80% | pest or weed control at 200 ppm [3]: ≥ 80% | pest or weed control at 200 ppm (Phakopsora pachrhizi): ≥ 80%

Now from value to compound, other results behind:

melting point: 105 to 115 °C
SMILES: CCCOC(=O)c1cnn(Cc2ccc(-c3noc(C(F)(F)F)n3)cc2)c1 [X.16, propyl 1-[[4-[5-(trifluoromethyl)-1,2,4-oxadiazol-3-yl]phenyl]methyl]pyrazole-4-carboxylate]
inhibition of growth at 20 ppm [1]: ≥ 80% | pest or weed control at 200 ppm [2]: ≥ 80% | pest or weed control at 200 ppm [3]: ≥ 80% | pest or weed control at 200 ppm (Phakopsora pachrhizi): ≥ 80%

melting point: 102 to 112 °C
SMILES: CON(C)C(=O)c1cnn(Cc2ccc(-c3noc(C(F)(F)F)n3)cc2)c1 [X.15, N-methoxy-N-methyl-1-[[4-[5-(trifluoromethyl)-1,2,4-oxadiazol-3-yl]phenyl]methyl]pyrazole-4-carboxamide]
inhibition of growth at 20 ppm [1]: ≥ 80% | pest or weed control at 200 ppm [2]: ≥ 80% | pest or weed control at 200 ppm [3]: ≥ 80% | pest or weed control at 200 ppm (Phakopsora pachrhizi): ≥ 80%

melting point: 124 to 129 °C
SMILES: CN(C)C(=O)c1cnn(Cc2ccc(-c3noc(C(F)(F)F)n3)cc2)c1 [X.05, N,N-dimethyl-1-[[4-[5-(trifluoromethyl)-1,2,4-oxadiazol-3-yl]phenyl]methyl]pyrazole-4-carboxamide]
inhibition of growth at 20 ppm [1]: ≥ 80% | pest or weed control at 200 ppm [2]: ≥ 80% | pest or weed control at 200 ppm [3]: ≥ 80% | pest or weed control at 200 ppm (Phakopsora pachrhizi): ≥ 80%

melting point: 128 to 138 °C
SMILES: CONC(=O)c1cnn(Cc2ccc(-c3noc(C(F)(F)F)n3)cc2)c1 [X.17, N-methoxy-1-[[4-[5-(trifluoromethyl)-1,2,4-oxadiazol-3-yl]phenyl]methyl]pyrazole-4-carboxamide]
inhibition of growth at 20 ppm [1]: ≥ 80% | pest or weed control at 200 ppm [2]: ≥ 80% | pest or weed control at 200 ppm [3]: ≥ 80% | pest or weed control at 200 ppm (Phakopsora pachrhizi): ≥ 80%

melting point: 166 to 176 °C
SMILES: CCNC(=O)c1cnn(Cc2ccc(-c3noc(C(F)(F)F)n3)cc2)c1 [X.18, N-ethyl-1-[[4-[5-(trifluoromethyl)-1,2,4-oxadiazol-3-yl]phenyl]methyl]pyrazole-4-carboxamide]
inhibition of growth at 20 ppm [1]: ≥ 80% | pest or weed control at 200 ppm [2]: ≥ 80% | pest or weed control at 200 ppm [3]: ≥ 80% | pest or weed control at 200 ppm (Phakopsora pachrhizi): ≥ 80%

melting point: 86 to 96 °C
SMILES: CCN(CC)C(=O)c1cnn(Cc2ccc(-c3noc(C(F)(F)F)n3)cc2)c1 [X.14, N,N-diethyl-1-[[4-[5-(trifluoromethyl)-1,2,4-oxadiazol-3-yl]phenyl]methyl]pyrazole-4-carboxamide]
inhibition of growth at 20 ppm [1]: ≥ 80% | pest or weed control at 200 ppm [2]: ≥ 80% | pest or weed control at 200 ppm [3]: ≥ 80% | pest or weed control at 200 ppm (Phakopsora pachrhizi): ≥ 80%

melting point: 131 to 135 °C
SMILES: CCOC(=O)c1cnn(Cc2ccc(-c3noc(C(F)(F)F)n3)c(F)c2)c1 [X.13, ethyl 1-[[3-fluoro-4-[5-(trifluoromethyl)-1,2,4-oxadiazol-3-yl]phenyl]methyl]pyrazole-4-carboxylate]
inhibition of growth at 20 ppm [1]: ≥ 80% | pest or weed control at 200 ppm [2]: ≥ 80% | pest or weed control at 200 ppm (Phakopsora pachrhizi): ≥ 80%

melting point: 122 to 129 °C
SMILES: COC(=O)c1cnn(Cc2ccc(-c3noc(C(F)(F)F)n3)cc2)c1 [X.12, methyl 1-[[4-[5-(trifluoromethyl)-1,2,4-oxadiazol-3-yl]phenyl]methyl]pyrazole-4-carboxylate]
inhibition of growth at 20 ppm [1]: ≥ 80% | pest or weed control at 200 ppm [2]: ≥ 80% | pest or weed control at 200 ppm [3]: ≥ 80% | pest or weed control at 200 ppm (Phakopsora pachrhizi): ≥ 80%

melting point: 156 to 161 °C
SMILES: CNC(=O)c1cnn(Cc2ccc(-c3noc(C(F)(F)F)n3)cc2)c1 [X.06, N-methyl-1-[[4-[5-(trifluoromethyl)-1,2,4-oxadiazol-3-yl]phenyl]methyl]pyrazole-4-carboxamide]
inhibition of growth at 20 ppm [1]: ≥ 80% | pest or weed control at 200 ppm [2]: ≥ 80% | pest or weed control at 200 ppm [3]: ≥ 80% | pest or weed control at 200 ppm (Phakopsora pachrhizi): ≥ 80%
